The target of assay [1] is T1, bc1 complex (complex III) (Eikenella corrodens, UniProt V7IIL5).
T1 construct: gene HMPREF1177_00380; native complex in isolated membrane particles, not purified; with Ubiquinol-cytochrome c reductase iron-sulfur subunit; Cytochrome c1
T1 sequence (V7IIL5 1-530): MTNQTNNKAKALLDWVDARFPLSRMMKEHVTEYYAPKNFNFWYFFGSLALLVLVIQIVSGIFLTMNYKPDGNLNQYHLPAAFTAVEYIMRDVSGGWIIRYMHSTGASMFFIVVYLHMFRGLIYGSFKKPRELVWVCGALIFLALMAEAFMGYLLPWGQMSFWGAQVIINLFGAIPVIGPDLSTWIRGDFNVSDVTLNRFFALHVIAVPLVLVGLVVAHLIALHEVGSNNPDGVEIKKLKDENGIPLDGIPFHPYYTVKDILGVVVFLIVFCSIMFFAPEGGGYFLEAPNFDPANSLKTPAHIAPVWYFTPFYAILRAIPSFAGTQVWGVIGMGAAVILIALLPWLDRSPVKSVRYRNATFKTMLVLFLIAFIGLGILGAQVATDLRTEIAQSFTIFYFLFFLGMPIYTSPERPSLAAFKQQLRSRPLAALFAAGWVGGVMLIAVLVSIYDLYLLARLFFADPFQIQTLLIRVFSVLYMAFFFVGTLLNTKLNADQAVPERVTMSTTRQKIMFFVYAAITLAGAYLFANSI
T1 sequence (V7IHH9 1-197 partner): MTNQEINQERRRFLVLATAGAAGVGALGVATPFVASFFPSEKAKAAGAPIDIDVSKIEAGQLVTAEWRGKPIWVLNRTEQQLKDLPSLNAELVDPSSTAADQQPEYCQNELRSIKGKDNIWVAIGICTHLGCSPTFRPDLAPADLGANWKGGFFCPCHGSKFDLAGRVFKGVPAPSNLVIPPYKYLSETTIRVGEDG
The experiment in a line: polarographic O2 uptake (Clark electrode), succinate oxidase of membranes. The assay is classed as biochemical. Conditions: succinate as substrate, 34 °C; read-out is the whole succinate respiration.

For assay [2], the target named is T2, dissimilatory nitrate reductase, Nar (Eikenella corrodens, UniProt V7IBI8).
T2 construct: gene HMPREF1177_02096; with Respiratory nitrate reductase beta subunit; Respiratory nitrate reductase gamma subunit
T2 sequence (V7IA22 entry or part of it): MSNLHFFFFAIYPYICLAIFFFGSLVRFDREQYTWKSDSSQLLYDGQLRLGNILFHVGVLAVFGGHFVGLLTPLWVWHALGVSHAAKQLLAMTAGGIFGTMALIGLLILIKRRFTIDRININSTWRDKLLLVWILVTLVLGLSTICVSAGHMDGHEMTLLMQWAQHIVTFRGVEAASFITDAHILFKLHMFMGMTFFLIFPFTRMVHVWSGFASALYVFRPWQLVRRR
T2 sequence (V7IBP6 entry or part of it, further chain): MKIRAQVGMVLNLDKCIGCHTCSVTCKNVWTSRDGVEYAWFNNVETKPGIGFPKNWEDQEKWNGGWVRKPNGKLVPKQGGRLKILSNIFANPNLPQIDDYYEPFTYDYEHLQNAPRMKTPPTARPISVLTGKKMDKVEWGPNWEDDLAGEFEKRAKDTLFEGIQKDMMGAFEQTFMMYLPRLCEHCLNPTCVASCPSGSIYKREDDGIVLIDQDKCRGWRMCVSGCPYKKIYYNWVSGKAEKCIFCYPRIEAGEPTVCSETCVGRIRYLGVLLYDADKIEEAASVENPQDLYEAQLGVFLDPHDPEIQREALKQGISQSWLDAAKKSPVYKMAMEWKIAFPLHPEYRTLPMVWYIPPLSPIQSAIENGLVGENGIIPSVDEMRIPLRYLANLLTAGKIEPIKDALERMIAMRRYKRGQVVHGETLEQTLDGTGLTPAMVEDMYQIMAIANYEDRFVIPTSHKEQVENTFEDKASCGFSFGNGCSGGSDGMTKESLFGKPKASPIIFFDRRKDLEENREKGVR
T2 sequence (V7IBI8 entry or part of it): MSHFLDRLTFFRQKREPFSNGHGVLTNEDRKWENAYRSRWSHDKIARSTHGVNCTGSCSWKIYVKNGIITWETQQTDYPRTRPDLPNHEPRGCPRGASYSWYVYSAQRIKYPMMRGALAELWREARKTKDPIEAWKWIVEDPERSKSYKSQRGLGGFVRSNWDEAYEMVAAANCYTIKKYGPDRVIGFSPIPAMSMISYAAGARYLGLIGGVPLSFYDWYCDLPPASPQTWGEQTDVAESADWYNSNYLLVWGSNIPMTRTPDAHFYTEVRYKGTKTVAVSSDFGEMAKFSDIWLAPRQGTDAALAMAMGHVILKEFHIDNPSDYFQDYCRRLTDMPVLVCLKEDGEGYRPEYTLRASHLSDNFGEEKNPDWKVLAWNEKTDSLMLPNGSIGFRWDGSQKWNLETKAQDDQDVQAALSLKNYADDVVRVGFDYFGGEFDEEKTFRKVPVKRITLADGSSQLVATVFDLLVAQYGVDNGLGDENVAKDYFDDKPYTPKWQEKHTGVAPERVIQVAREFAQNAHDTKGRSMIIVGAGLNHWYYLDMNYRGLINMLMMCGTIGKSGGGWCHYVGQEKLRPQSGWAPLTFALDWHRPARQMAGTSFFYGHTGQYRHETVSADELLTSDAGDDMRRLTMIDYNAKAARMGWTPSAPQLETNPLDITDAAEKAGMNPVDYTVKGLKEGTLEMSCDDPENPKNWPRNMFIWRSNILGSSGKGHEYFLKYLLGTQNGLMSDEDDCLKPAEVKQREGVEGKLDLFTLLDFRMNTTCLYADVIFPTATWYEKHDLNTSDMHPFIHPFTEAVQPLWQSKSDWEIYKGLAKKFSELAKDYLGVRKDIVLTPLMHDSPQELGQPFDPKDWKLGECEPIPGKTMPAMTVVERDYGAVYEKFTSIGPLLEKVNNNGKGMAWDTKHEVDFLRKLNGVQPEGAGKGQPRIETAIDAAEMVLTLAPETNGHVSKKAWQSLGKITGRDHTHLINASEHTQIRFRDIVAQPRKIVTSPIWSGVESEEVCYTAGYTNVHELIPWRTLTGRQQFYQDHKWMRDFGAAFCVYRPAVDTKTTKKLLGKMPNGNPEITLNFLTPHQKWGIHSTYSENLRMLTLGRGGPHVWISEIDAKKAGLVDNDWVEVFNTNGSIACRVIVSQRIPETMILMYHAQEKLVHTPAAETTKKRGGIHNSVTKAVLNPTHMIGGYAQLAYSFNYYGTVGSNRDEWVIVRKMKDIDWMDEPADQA
In words: oxidation of reduced methyl viologen at […] nm, membranes. The assay is classed as biochemical. Conditions: 1 mM dithionite-reduced methyl viologen, 2 mM nitrate, pH 7.4, anaerobic.

One may read the IC50 as the concentration that gives 50% inhibition.

`CCCCCCCc1cc(O)c2ccccc2[n+]1[O-]` [HQNO, 2-heptyl-4-hydroxyquinoline-N-oxide]: in assay [1], the IC50 was determined as 40 µM.

With antimycin A3, the half-maximal inhibitory concentration (IC50) in assay [1] came to 20 µM.

Turning to `O=[N+]([O-])O` [nitrate], the “oxidation of reduced methyl viologen at 600 nm, membranes” value in assay [2] was “The reaction was started by the injection of an anaerobic solution of potassium nitrate”.

The values above are taken from paper PMC8076288, “Effect of respiratory inhibitors and quinone analogues on the aerobic electron transport system of Eikenella corrodens” (Scientific Reports, 2021).
